In patent US12516049B2, “Sulfonylurea ring substituted monocyclic β-lactam antibiotics” (priority 2019, dated 2026):
Converted amounts (≈) assume the structure as drawn. Where two headings read alike, the source gives them in different places.

Assays:
Assay type in all cases: cell-based
[1] = tested on: Enterobacter cloacae ATCC BAA-1143 (AmpC); assay: MIC, micro-liquid dilution (CLSI); settings: ATCCBAA1143, E. cloacae ATCC BAA-1143, Class C (AmpC), 20-24 h, 37° C.
Protocol: (§1) Three strains of Klebsiella pneumonia, ATCC BAA-205 (TEM-1/SHV-1/SHV-12), ATCC BAA-1705 (KPC-2), ATCC BAA-2470 (NDM-1), Enterobacter cloacae ATCC BAA-1143 (AmpC), two strains of Escherichia coli ATCC BAA-2523 (OXA-48), ATCC 25922 were used to determine the minimum inhibitory concentration (MIC) of each of the compounds by micro-liquid dilution method according to the Institute of Clinical and Laboratory Standard (CLSI) requirements. […]. The plate was placed upside down at 37° C. and the MIC value was read after 20-24 h of incubation, and the lowest drug concentration that inhibited the growth of bacteria was set as MIC. Colony-Forming Units (CFU) refer to the total number of bacterial colonies per unit volume.

[2] = tested on: Escherichia coli ATCC 25922; assay: MIC, micro-liquid dilution (CLSI); settings: ATCC25922, E. coli ATCC 25922, 20-24 h, 37° C.
Protocol: as §1

[3] = tested on: Escherichia coli ATCC BAA-2523 (OXA-48); assay: MIC, micro-liquid dilution (CLSI); settings: ATCCBAA2523, E. coli ATCC BAA-2523, Class D (OXA-48), 20-24 h, 37° C., read-out: MIC
Protocol: as §1

[4] = tested on: Klebsiella pneumonia ATCC BAA-1705 (KPC-2); assay: MIC, micro-liquid dilution (CLSI); settings: Klebsiella pneumoniae, ATCCBAA1705; K. pneumonia ATCC BAA-1705, Class A (KPC-2); 20-24 h, 37° C.
Protocol: as §1

[5] = tested on: Klebsiella pneumonia ATCC BAA-205 (TEM-1/SHV-1/SHV-12); assay: MIC, micro-liquid dilution (CLSI); settings: Klebsiella pneumoniae, ATCCBAA205; K. pneumonia ATCC BAA-205, Class A (TEM-1/SHV-1/SHV-12); 20-24 h, 37° C.
Protocol: as §1

[6] = tested on: Klebsiella pneumonia ATCC BAA-2470 (NDM-1); assay: MIC, micro-liquid dilution (CLSI); settings: Klebsiella pneumoniae, ATCCBAA2470; K. pneumonia ATCC BAA-2470, Class B (NDM-1); 20-24 h, 37° C.
Protocol: as §1

[7] = tested on: E.coli 020028; assay: MIC, two-fold agar dilution, clinical isolate; settings: Escherichia coli, single drug, average of three tests
Protocol: (§2) The minimum inhibitory concentration (MIC) of the compound and combination with β-lactamase (MBLs) inhibitors against clinically isolated carbapenem-resistant enterobacteriaceae was determined by the two-fold agar dilution method to determine the activity of the compound to be tested against strains producing MBLs. Antibiotics and enzyme inhibitors were weighed separately and dissolved in sterile ultrapure water or dimethyl sulfoxide to prepare mother liquor, MHA medium was prepared, pH was adjusted to 7.2-7.4, and it was sterilized at 121° C. for 15 minutes and placed in a 55° C. water bath for heat preservation. The mother liquor was diluted to the concentration to be tested by double dilution method, an inoculum liquid was prepared by direct bacterial suspension method, 1 mL of the prepared bacteria solution was withdrawn and putted into the inoculation tube, and a positioning needle and an inoculation needle were installed. A bacterial multi-point inoculator was started for inoculation. After the bacterial solution was absorbed by the agar, the plate was placed upside down in an incubator at 37° C. for 16-20 hours, and the results were observed. The average of three tests was taken.

[8] = tested on: E.coli 020031; assay: MIC, two-fold agar dilution, clinical isolate; settings: Escherichia coli, single drug, average of three tests
Protocol: as §2

[9] = tested on: E.coli 020033; assay: MIC, two-fold agar dilution, clinical isolate; settings: Escherichia coli, single drug, average of three tests
Protocol: as §2

[10] = tested on: E.coli 115103; assay: MIC, two-fold agar dilution, clinical isolate; settings: Escherichia coli
Protocol: as §2

[11] = tested on: E.coli BAA-2452; assay: MIC, two-fold agar dilution, clinical isolate; settings: Escherichia coli, BAA2452; E.coli BAA-2452; single drug; average of three tests; read-out: MIC
Protocol: as §2

[12] = tested on: E.coli C1569; assay: MIC, two-fold agar dilution, clinical isolate; settings: Escherichia coli, single drug, average of three tests
Protocol: as §2

[13] = tested on: E.coli CRE18; assay: MIC, two-fold agar dilution, clinical isolate; settings: Escherichia coli
Protocol: as §2

[14] = tested on: E.coli CRE21; assay: MIC, two-fold agar dilution, clinical isolate; settings: Escherichia coli
Protocol: as §2

[15] = tested on: E.coli CRE23; assay: MIC, two-fold agar dilution, clinical isolate; settings: Escherichia coli
Protocol: as §2

[16] = tested on: E.coli CRE28; assay: MIC, two-fold agar dilution, clinical isolate; settings: Escherichia coli
Protocol: as §2

[17] = tested on: K.p 090339; assay: MIC, two-fold agar dilution, clinical isolate; settings: K.p 090339; single drug; average of three tests; read-out: MIC
Protocol: as §2

[18] = tested on: K.p 115004; assay: MIC, two-fold agar dilution, clinical isolate; settings: K.p 115004; single drug; average of three tests; read-out: MIC
Protocol: as §2

[19] = tested on: K.p 11544; assay: MIC, two-fold agar dilution, clinical isolate
Protocol: as §2

[20] = tested on: K.p 13249; assay: MIC, two-fold agar dilution, clinical isolate
Protocol: as §2

[21] = tested on: K.p 6777; assay: MIC, two-fold agar dilution, clinical isolate
Protocol: as §2

[22] = tested on: K.p BAA-2470; assay: MIC, two-fold agar dilution, clinical isolate
Protocol: as §2

[23] = tested on: K.p C904; assay: MIC, two-fold agar dilution, clinical isolate
Protocol: as §2

[24] = tested on: K.p CRE11; assay: MIC, two-fold agar dilution, clinical isolate
Protocol: as §2

[25] = tested on: K.p CRE12; assay: MIC, two-fold agar dilution, clinical isolate; settings: single drug, average of three tests
Protocol: as §2

[26] = tested on: K.p CRE16; assay: MIC, two-fold agar dilution, clinical isolate; settings: single drug, average of three tests
Protocol: as §2

[27] = tested on: K.p HX37; assay: MIC, two-fold agar dilution, clinical isolate
Protocol: as §2

[28] = tested on: K.p HX77; assay: MIC, two-fold agar dilution, clinical isolate; settings: single drug, average of three tests
Protocol: as §2

[29] = tested on: Morganella morganii C1274; assay: MIC, two-fold agar dilution, clinical isolate; settings: Morganella morganii C1274; single drug; average of three tests; read-out: MIC
Protocol: as §2

[30] = tested on: clinically isolated carbapenem-resistant enterobacteriaceae; settings: single drug; panel of 26 strains of Table 2
Protocol: as §2, with “Antibiotics and enzyme inhibitors were weighed separately and dissolved in sterile ultrapure water or dimethyl sulfoxide to prepare mother liquor, MHA medium was prepared, pH was adjusted to 7.2-7.4, and it was sterilized at 121° C. for 15 minutes and placed in a 55° C. water bath for heat preservation.” left out

[31] = tested on: E.coli 115101; assay: MIC, two-fold agar dilution, clinical isolate; settings: Escherichia coli, 115101
Protocol: as §2, with “Antibiotics and enzyme inhibitors were weighed separately and dissolved in sterile ultrapure water or dimethyl sulfoxide to prepare mother liquor, MHA medium was prepared, pH was adjusted to 7.2-7.4, and it was sterilized at 121° C. for 15 minutes and placed in a 55° C. water bath for heat preservation.” left out

[32] = tested on: E.coli 115105; assay: MIC, two-fold agar dilution, clinical isolate; settings: Escherichia coli, single drug, average of three tests
Protocol: as §2, with “Antibiotics and enzyme inhibitors were weighed separately and dissolved in sterile ultrapure water or dimethyl sulfoxide to prepare mother liquor, MHA medium was prepared, pH was adjusted to 7.2-7.4, and it was sterilized at 121° C. for 15 minutes and placed in a 55° C. water bath for heat preservation.” left out

[33] = tested on: K.p HX30; assay: MIC, two-fold agar dilution, clinical isolate
Protocol: as §2, with “Antibiotics and enzyme inhibitors were weighed separately and dissolved in sterile ultrapure water or dimethyl sulfoxide to prepare mother liquor, MHA medium was prepared, pH was adjusted to 7.2-7.4, and it was sterilized at 121° C. for 15 minutes and placed in a 55° C. water bath for heat preservation.” left out

Structure (SMILES) | MIC [1] | MIC [2] | MIC [3] | MIC [4] | MIC [5] | MIC [6] | MIC [7] | MIC [8] | MIC [9] | MIC [11] | MIC [12] | MIC [17] | MIC [18] | MIC [25] | MIC [26] | MIC [28] | MIC [29] | also measured
CC(=O)NC[C@@H]1CN(C[C@@H]2[C@H](NC(=O)/C(=N\OC3(C(=O)O)CC3)c3csc(N)n3)C(=O)N2S(=O)(=O)O)S(=O)(=O)N1 [Compound 6] | 1 µg/mL (≈ 1.6 µM) | 4 µg/mL (≈ 6.4 µM) | 0.25 µg/mL (≈ 0.4 µM) | 8 µg/mL (≈ 12.8 µM) | 2 µg/mL (≈ 3.2 µM) | 1 µg/mL (≈ 1.6 µM) |  |  |  |  |  |  |  |  |  |  |  | 
C[C@@H](O)[C@H]1C(=O)N2C(C(=O)O)=C(S[C@@H]3CN[C@H](C(=O)N(C)C)C3)[C@H](C)[C@H]12 [Meropenem] |  |  |  |  |  |  | 16 µg/mL | 32 µg/mL | 32 µg/mL | 16 µg/mL | 16 µg/mL | 16 µg/mL | 16 µg/mL | 16 µg/mL | 8 µg/mL | 16 µg/mL | 2 µg/mL | MIC ([10]; E.coli 115103, single drug, average of three tests, read-out: MIC): 16 µg/mL; MIC ([13]; E.coli CRE18, single drug, average of three tests, read-out: MIC): 32 µg/mL; MIC ([14]; E.coli CRE21, single drug, average of three tests, read-out: MIC): 64 µg/mL; MIC ([15]; E.coli CRE23, single drug, average of three tests, read-out: MIC): 32 µg/mL; MIC ([16]; E.coli CRE28, single drug, average of three tests, read-out: MIC): 32 µg/mL; MIC ([19]; K.p 11544, single drug, average of three tests, read-out: MIC): 16 µg/mL; MIC ([20]; K.p 13249, single drug, average of three tests, read-out: MIC): 32 µg/mL; MIC ([21]; K.p 6777, single drug, average of three tests, read-out: MIC): 8 µg/mL; MIC ([22]; K.p BAA-2470, single drug, average of three tests, read-out: MIC): 32 µg/mL; MIC ([23]; K.p C904, single drug, average of three tests, read-out: MIC): 16 µg/mL; MIC ([24]; K.p CRE11, single drug, average of three tests, read-out: MIC): 32 µg/mL; MIC ([27]; K.p HX37, single drug, average of three tests, read-out: MIC): 32 µg/mL; MIC50 [30]: 16 µg/mL
CC(=O)OC[C@@H]1CN(C[C@@H]2[C@H](NC(=O)/C(=N\OC3(C(=O)O)CC3)c3csc(N)n3)C(=O)N2S(=O)(=O)O)S(=O)(=O)N1 [Compound 3] | 2 µg/mL (≈ 3.2 µM) | 4 µg/mL (≈ 6.39 µM) | 0.25 µg/mL (≈ 0.4 µM) | 2 µg/mL (≈ 3.2 µM) | 2 µg/mL (≈ 3.2 µM) | 1 µg/mL (≈ 1.6 µM) |  |  |  |  |  |  |  |  |  |  |  | 
C[C@H]1[C@H](NC(=O)/C(=N\OC(C)(C)C(=O)O)c2csc(N)n2)C(=O)N1S(=O)(=O)O [Aztreonam] |  |  |  |  |  |  | 16 µg/mL | 4 µg/mL | 32 µg/mL | 16 µg/mL | 1 µg/mL | 64 µg/mL | 64 µg/mL | 4 µg/mL | 64 µg/mL | 16 µg/mL | 4 µg/mL | MIC [10]; 115103: 128 µg/mL; MIC ([13]; CRE18): > 128 µg/mL; MIC ([14]; CRE21): > 128 µg/mL; MIC ([15]; CRE23): > 128 µg/mL; MIC ([16]; CRE28): > 128 µg/mL; MIC [19]: > 128 µg/mL; MIC [20]: > 128 µg/mL; MIC [21]: 128 µg/mL; MIC [22]: > 128 µg/mL; MIC [23]: > 128 µg/mL; MIC [24]: 128 µg/mL; MIC [27]: > 128 µg/mL; MIC [31]: > 128 µg/mL; MIC [32]: 16 µg/mL; MIC [33]: > 128 µg/mL
N=C(N)NC[C@@H]1CN(C[C@@H]2[C@H](NC(=O)/C(=N\OC3(C(=O)O)CC3)c3csc(N)n3)C(=O)N2S(=O)(=O)O)S(=O)(=O)N1 [Compound 5] | 1 µg/mL (≈ 1.6 µM) | 0.5 µg/mL (≈ 0.8 µM) | 0.25 µg/mL (≈ 0.4 µM) | 1 µg/mL (≈ 1.6 µM) | 1 µg/mL (≈ 1.6 µM) | 0.5 µg/mL (≈ 0.8 µM) |  |  |  |  |  |  |  |  |  |  |  | 
Nc1nc(/C(=N/OC2(C(=O)O)CC2)C(=O)N[C@@H]2C(=O)N(S(=O)(=O)O)[C@@H]2CN2CCCNS2(=O)=O)cs1 [Compound 2] | 2 µg/mL (≈ 3.52 µM) | 4 µg/mL (≈ 7.05 µM) | 1 µg/mL (≈ 1.76 µM) | 2 µg/mL (≈ 3.52 µM) | 1 µg/mL (≈ 1.76 µM) | 1 µg/mL (≈ 1.76 µM) |  |  |  |  |  |  |  |  |  |  |  | 
